Columns and labels:
Experiment in all cases: relative viability (nuclei count vs DMSO), 5 days (fraction); higher = more cells survive
Alisertib + Pictilisib = compound: COc1cc(Nc2ncc3c(n2)-c2ccc(Cl)cc2C(c2c(F)cccc2OC)=NC3)ccc1C(=O)O [Alisertib] + CS(=O)(=O)N1CCN(Cc2cc3nc(-c4cccc5[nH]ncc45)nc(N4CCOCC4)c3s2)CC1 [Pictilisib] (partner 1 µM)
How it was run: (§1)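 Cells from lung cancer lines were seeded into 1536-well plates and, one day later, dosed by pin tool. Treatments were either a single drug or a fixed dose of an anchor drug with five library-drug doses (not always all listed) in √10 steps. After 5 days, nuclei were stained in a one-step fixation (final 0.05% Triton X-100, 1% formaldehyde, 1 ug/ml Hoechst) and counted on 4× images, and relative viability is the treated-to-vehicle nuclei ratio, as the median of duplicate plates.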

Alisertib + Crizotinib = compound: COc1cc(Nc2ncc3c(n2)-c2ccc(Cl)cc2C(c2c(F)cccc2OC)=NC3)ccc1C(=O)O [Alisertib] + C[C@@H](Oc1cc(-c2cnn(C3CCNCC3)c2)cnc1N)c1c(Cl)ccc(F)c1Cl [Crizotinib] (partner 1 µM)
How it was run: as §1

Alisertib + Alpelisib = compound: COc1cc(Nc2ncc3c(n2)-c2ccc(Cl)cc2C(c2c(F)cccc2OC)=NC3)ccc1C(=O)O [Alisertib] + Cc1nc(NC(=O)N2CCC[C@H]2C(N)=O)sc1-c1ccnc(C(C)(C)C(F)(F)F)c1 [Alpelisib] (partner 2 µM)
How it was run: as §1

Alisertib + Lapatinib = compound: COc1cc(Nc2ncc3c(n2)-c2ccc(Cl)cc2C(c2c(F)cccc2OC)=NC3)ccc1C(=O)O [Alisertib] + CS(=O)(=O)CCNCc1ccc(-c2ccc3ncnc(Nc4ccc(OCc5cccc(F)c5)c(Cl)c4)c3c2)o1 [Lapatinib] (partner 2 µM)
How it was run: as §1

Alisertib + Bortezomib = compound: COc1cc(Nc2ncc3c(n2)-c2ccc(Cl)cc2C(c2c(F)cccc2OC)=NC3)ccc1C(=O)O [Alisertib] + CC(C)C[C@H](NC(=O)[C@H](Cc1ccccc1)NC(=O)c1cnccn1)B(O)O [Bortezomib] (partner 0.002 µM)
How it was run: as §1

Alisertib + Olaparib = compound: COc1cc(Nc2ncc3c(n2)-c2ccc(Cl)cc2C(c2c(F)cccc2OC)=NC3)ccc1C(=O)O [Alisertib] + O=C(c1cc(Cc2n[nH]c(=O)c3ccccc23)ccc1F)N1CCN(C(=O)C2CC2)CC1 [Olaparib] (partner 8 µM)
How it was run: as §1

Alisertib + Navitoclax = compound: COc1cc(Nc2ncc3c(n2)-c2ccc(Cl)cc2C(c2c(F)cccc2OC)=NC3)ccc1C(=O)O [Alisertib] + CC1(C)CCC(c2ccc(Cl)cc2)=C(CN2CCN(c3ccc(C(=O)NS(=O)(=O)c4ccc(N[C@H](CCN5CCOCC5)CSc5ccccc5)c(S(=O)(=O)C(F)(F)F)c4)cc3)CC2)C1 [Navitoclax] (partner 0.5 µM)
How it was run: as §1

Alisertib + Foretinib = compound: COc1cc(Nc2ncc3c(n2)-c2ccc(Cl)cc2C(c2c(F)cccc2OC)=NC3)ccc1C(=O)O [Alisertib] + COc1cc2c(Oc3ccc(NC(=O)C4(C(=O)Nc5ccc(F)cc5)CC4)cc3F)ccnc2cc1OCCCN1CCOCC1 [Foretinib] (partner 0.25 µM)
How it was run: as §1

Alisertib + Linsitinib = compound: COc1cc(Nc2ncc3c(n2)-c2ccc(Cl)cc2C(c2c(F)cccc2OC)=NC3)ccc1C(=O)O [Alisertib] + C[C@]1(O)C[C@@H](c2nc(-c3ccc4ccc(-c5ccccc5)nc4c3)c3c(N)nccn32)C1 [Linsitinib] (partner 1 µM)
How it was run: as §1

Alisertib = compound: COc1cc(Nc2ncc3c(n2)-c2ccc(Cl)cc2C(c2c(F)cccc2OC)=NC3)ccc1C(=O)O [Alisertib]
How it was run: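 Viability was defined as treated-well nuclei divided by vehicle-well nuclei, with the median taken over replicate plates. Cells from lung cancer lines sat overnight at 37 °C in 1536-well plates, received five √10-spaced library-drug doses by pinning on vehicle-anchored plates, and grew 5 days without medium change before one-step fixation, permeabilisation and Hoechst staining, 4× imaging and MetaXpress nuclear counts. Only plates with control CV under 25% and at least one doubling were kept.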

Alisertib + Luminespib = compound: COc1cc(Nc2ncc3c(n2)-c2ccc(Cl)cc2C(c2c(F)cccc2OC)=NC3)ccc1C(=O)O [Alisertib] + CCNC(=O)c1noc(-c2cc(C(C)C)c(O)cc2O)c1-c1ccc(CN2CCOCC2)cc1 [Luminespib] (partner 0.01 µM)
How it was run: as §1

Alisertib + Dasatinib = compound: COc1cc(Nc2ncc3c(n2)-c2ccc(Cl)cc2C(c2c(F)cccc2OC)=NC3)ccc1C(=O)O [Alisertib] + Cc1nc(Nc2ncc(C(=O)Nc3c(C)cccc3Cl)s2)cc(N2CCN(CCO)CC2)n1 [Dasatinib] (partner 0.075 µM)
How it was run: as §1

Alisertib + Phenformin = compound: COc1cc(Nc2ncc3c(n2)-c2ccc(Cl)cc2C(c2c(F)cccc2OC)=NC3)ccc1C(=O)O [Alisertib] + N=C(N)NC(=N)NCCc1ccccc1 [Phenformin] (partner 250 µM)
How it was run: as §1

Alisertib + OSI-027 = compound: COc1cc(Nc2ncc3c(n2)-c2ccc(Cl)cc2C(c2c(F)cccc2OC)=NC3)ccc1C(=O)O [Alisertib] + COc1cccc2cc(-c3nc([C@H]4CC[C@H](C(=O)O)CC4)n4ncnc(N)c34)[nH]c12 [OSI-027] (partner 0.5 µM)
How it was run: as §1

Alisertib + Tozasertib = compound: COc1cc(Nc2ncc3c(n2)-c2ccc(Cl)cc2C(c2c(F)cccc2OC)=NC3)ccc1C(=O)O [Alisertib] + Cc1cc(Nc2cc(N3CCN(C)CC3)nc(Sc3ccc(NC(=O)C4CC4)cc3)n2)n[nH]1 [Tozasertib] (partner 0.1 µM)
How it was run: as §1

NCI-H1299 gave a relative viability (Alisertib + Pictilisib; first compound 0.005 µM) of 0.753, a relative viability (Alisertib + Pictilisib; first compound 0.01581 µM) of 0.698 and a relative viability (Alisertib + Pictilisib; first compound 0.05 µM) of 0.187. The relative viability (Alisertib + Pictilisib; first compound 0.1581 µM) was 0.179, the relative viability (Alisertib + Pictilisib; first compound 0.5 µM) was 0.0871 and the relative viability (Alisertib + Crizotinib; first compound 0.005 µM) was 0.965. It also gave a relative viability (Alisertib + Crizotinib; first compound 0.01581 µM) of 0.727, a relative viability (Alisertib + Crizotinib; first compound 0.05 µM) of 0.671 and a relative viability (Alisertib + Crizotinib; first compound 0.1581 µM) of 0.348. The relative viability (Alisertib + Crizotinib; first compound 0.5 µM) was 0.252, the relative viability (Alisertib + Alpelisib; first compound 0.005 µM) was 1.06 and the relative viability (Alisertib + Alpelisib; first compound 0.01581 µM) was 1. The relative viability (Alisertib + Alpelisib; first compound 0.05 µM) was 0.815, the relative viability (Alisertib + Alpelisib; first compound 0.1581 µM) was 0.522 and the relative viability (Alisertib + Alpelisib; first compound 0.5 µM) was 0.279. It also gave a relative viability (Alisertib + Lapatinib; first compound 0.005 µM) of 0.939, a relative viability (Alisertib + Lapatinib; first compound 0.01581 µM) of 0.904 and a relative viability (Alisertib + Lapatinib; first compound 0.05 µM) of 0.586. It also gave a relative viability (Alisertib + Lapatinib; first compound 0.1581 µM) of 0.452, a relative viability (Alisertib + Lapatinib; first compound 0.5 µM) of 0.295 and a relative viability (Alisertib + Bortezomib; first compound 0.005 µM) of 0.995. For the same cell line, the relative viability (Alisertib + Bortezomib; first compound 0.01581 µM) was 0.983, the relative viability (Alisertib + Bortezomib; first compound 0.05 µM) was 0.674 and the relative viability (Alisertib + Bortezomib; first compound 0.1581 µM) was 0.457. For the same cell line, the relative viability (Alisertib + Bortezomib; first compound 0.5 µM) was 0.286, the relative viability (Alisertib + Olaparib; first compound 0.005 µM) was 0.931 and the relative viability (Alisertib + Olaparib; first compound 0.01581 µM) was 0.877. It also gave a relative viability (Alisertib + Olaparib; first compound 0.05 µM) of 0.582, a relative viability (Alisertib + Olaparib; first compound 0.1581 µM) of 0.396 and a relative viability (Alisertib + Olaparib; first compound 0.5 µM) of 0.193. For the same cell line, the relative viability (Alisertib + Navitoclax; first compound 0.005 µM) was 1.03, the relative viability (Alisertib + Navitoclax; first compound 0.01581 µM) was 1.01 and the relative viability (Alisertib + Navitoclax; first compound 0.05 µM) was 0.801. For the same cell line, the relative viability (Alisertib + Navitoclax; first compound 0.1581 µM) was 0.395, the relative viability (Alisertib + Navitoclax; first compound 0.5 µM) was 0.204 and the relative viability (Alisertib + Foretinib; first compound 0.005 µM) was 1.05. The relative viability (Alisertib + Foretinib; first compound 0.01581 µM) was 1.05, the relative viability (Alisertib + Foretinib; first compound 0.05 µM) was 0.665 and the relative viability (Alisertib + Foretinib; first compound 0.1581 µM) was 0.333. It also gave a relative viability (Alisertib + Foretinib; first compound 0.5 µM) of 0.192, a relative viability (Alisertib + Linsitinib; first compound 0.005 µM) of 0.936 and a relative viability (Alisertib + Linsitinib; first compound 0.01581 µM) of 0.932. It also gave a relative viability (Alisertib + Linsitinib; first compound 0.05 µM) of 0.71, a relative viability (Alisertib + Linsitinib; first compound 0.1581 µM) of 0.271 and a relative viability (Alisertib + Linsitinib; first compound 0.5 µM) of 0.189. For the same cell line, the relative viability (Alisertib; 0.005 µM) was 0.992, the relative viability (Alisertib; 0.01581 µM) was 0.963 and the relative viability (Alisertib; 0.05 µM) was 0.585. For the same cell line, the relative viability (Alisertib; 0.1581 µM) was 0.415 and the relative viability (Alisertib; 0.5 µM) was 0.233.
In the case of NCI-H1623, the relative viability (Alisertib + Luminespib; first compound 0.005 µM) is reported as 0.499, the relative viability (Alisertib + Luminespib; first compound 0.01581 µM) is reported as 0.496 and the relative viability (Alisertib + Luminespib; first compound 0.05 µM) is reported as 0.385. For the same cell line, the relative viability (Alisertib + Luminespib; first compound 0.1581 µM) was 0.33, the relative viability (Alisertib + Luminespib; first compound 0.5 µM) was 0.379 and the relative viability (Alisertib + Dasatinib; first compound 0.005 µM) was 0.587. It also gave a relative viability (Alisertib + Dasatinib; first compound 0.01581 µM) of 0.647, a relative viability (Alisertib + Dasatinib; first compound 0.05 µM) of 0.573 and a relative viability (Alisertib + Dasatinib; first compound 0.1581 µM) of 0.344. For the same cell line, the relative viability (Alisertib + Dasatinib; first compound 0.5 µM) was 0.337, the relative viability (Alisertib + Phenformin; first compound 0.005 µM) was 0.619 and the relative viability (Alisertib + Phenformin; first compound 0.01581 µM) was 0.592. The relative viability (Alisertib + Phenformin; first compound 0.05 µM) was 0.501, the relative viability (Alisertib + Phenformin; first compound 0.1581 µM) was 0.382 and the relative viability (Alisertib + Phenformin; first compound 0.5 µM) was 0.337. The relative viability (Alisertib + OSI-027; first compound 0.005 µM) was 0.439, the relative viability (Alisertib + OSI-027; first compound 0.01581 µM) was 0.439 and the relative viability (Alisertib + OSI-027; first compound 0.05 µM) was 0.398. It also gave a relative viability (Alisertib + OSI-027; first compound 0.1581 µM) of 0.295, a relative viability (Alisertib + OSI-027; first compound 0.5 µM) of 0.309 and a relative viability (Alisertib + Foretinib; first compound 0.005 µM) of 0.884. For the same cell line, the relative viability (Alisertib + Foretinib; first compound 0.01581 µM) was 0.848, the relative viability (Alisertib + Foretinib; first compound 0.05 µM) was 0.569 and the relative viability (Alisertib + Foretinib; first compound 0.1581 µM) was 0.425. For the same cell line, the relative viability (Alisertib + Foretinib; first compound 0.5 µM) was 0.424, the relative viability (Alisertib + Tozasertib; first compound 0.005 µM) was 0.37 and the relative viability (Alisertib + Tozasertib; first compound 0.01581 µM) was 0.398. For the same cell line, the relative viability (Alisertib + Tozasertib; first compound 0.05 µM) was 0.424, the relative viability (Alisertib + Tozasertib; first compound 0.1581 µM) was 0.386 and the relative viability (Alisertib + Tozasertib; first compound 0.5 µM) was 0.425. The relative viability (Alisertib; 0.005 µM) was 0.841, the relative viability (Alisertib; 0.01581 µM) was 0.856 and the relative viability (Alisertib; 0.05 µM) was 0.656. The relative viability (Alisertib; 0.1581 µM) was 0.4 and the relative viability (Alisertib; 0.5 µM) was 0.395.
